This note sets out measurements from patent US4476120A, “Thiolic derivatives of erythromycin having therapeutic activity, and pharmaceutical compositions containing them” (Sigma Tau Indistrie Farmaceutiche Riunites, p.A, priority 1982, dated 1984).

Values after ≈ are worked out from the molar mass of the structure shown. Where two headings read alike, the source gives them in different places. Bounds are passed on as bounds.

One data set has as its system Citrobacter SS 09. Type of data set: cell-based. The note with it: Brain Heart Infusion, estolate and RV11-RV15 previously hydrolized, unit assumed.
The test system of the next data set is B. anthranis SS 08. Type of data set: cell-based. The following applies: Brain Heart Infusion, estolate and RV11-RV15 previously hydrolized, unit assumed.
Another data set relates to H. pertussis SS 03. Type of data set: cell-based. The following applies: Brain Heart Infusion, estolate and RV11-RV15 previously hydrolized, unit assumed.
Data set [1] in a line: Hematic levels in the rat (absorption by oral route). The following applies: for Hematic levels in the rat: 100 mg/kg as erythromycin, average, 100 mg/kg.
The subject of a further data set is B. anthranis SS 09. In kind it is cell-based. The following applies: B. anthranis SS 09 (14 bis); Brain Heart Infusion; estolate and RV11-RV15 previously hydrolized; unit assumed.
The next data set concerns Staph. albus SS 03. In kind it is cell-based. The following applies: Brain Heart Infusion, estolate and RV11-RV15 previously hydrolized, unit assumed.
The conditions of data set [2]: in vivo; for Hematic levels in the rat: po, 100 mg/kg; for absorption by oral route (in words): rat.
Data set [3] is described as follows: Hematic levels in the healthy volunteer. Type of data set: in vivo, healthy volunteers. The note with it: oral, 500 mg of erythromycin, average. An excerpt:
For the dosing, the microbiological method using a B. subtilis strain was adopted.

As to `CC[C@H]1OC(=O)[C@H](C)[C@@H](O[C@H]2C[C@@](C)(OC)[C@@H](O)[C@H](C)O2)[C@H](C)[C@@H](O[C@@H]2O[C@H](C)C[C@H](N(C)C)[C@H]2O)[C@](C)(O)C[C@@H](C)C(=O)[C@H](C)[C@@H](O)[C@]1(C)O` [RV05, erythromycin-N-acetylcysteinate], the MIC in the data set with Citrobacter SS 09 was over 200 µg/mL; against B. anthranis SS 08, 0.4 µg/mL (≈ 0.545 µM); in the data set on H. pertussis SS 03, 0.2 µg/mL (≈ 0.273 µM); in the data set on B. anthranis SS 09 it was 0.4 µg/mL (≈ 0.545 µM); against Staph. albus SS 03, 0.05 µg/mL (≈ 0.0681 µM). The “Hematic levels in the rat” value in data set [1] (0.30 hours, 18 min) was found to be 0.44 µg/mL; in data set [1] (1 hour, 60 min), 0.83 µg/mL; in data set [1] (2 hours, 120 min), 1.41 µg/mL; in data set [1] (3 hours, 180 min), 1.03 µg/mL; in data set [1] (4 hours, 240 min) it was 0.59 µg/mL; in data set [1] (5 hours, 300 min) it was 0.40 µg/mL. In data set [1] (6 hours, 360 min), the “Hematic levels in the rat” value was 0.08 µg/mL. For the same compound, the “absorption by oral route (in words)” value in data set [1] (from in vivo antibacterial and pharmacodynamic tests) is “poorly absorbed by oral route and in a rate like that of erythromycin base”.
In the case of `CCC(=O)O[C@H]1[C@H](O[C@@H]2[C@@H](C)[C@H](O[C@H]3C[C@@](C)(OC)[C@@H](O)[C@H](C)O3)[C@@H](C)C(=O)O[C@H](CC)[C@@](C)(O)[C@H](O)[C@@H](C)C(=O)[C@H](C)C[C@@]2(C)O)O[C@H](C)C[C@@H]1N(C)C` [RV11, erythromycin-monopropionate-alpha-mercaptosuccinate], the MIC against Citrobacter SS 09 was over 200 µg/mL; in the data set on B. anthranis SS 08, 0.8 µg/mL (≈ 1.01 µM); in the data set with H. pertussis SS 03 it was 0.4 µg/mL (≈ 0.506 µM); against B. anthranis SS 09 it was 0.4 µg/mL (≈ 0.506 µM); with Staph. albus SS 03 it was 0.05 µg/mL (≈ 0.0633 µM). Further, the “Hematic levels in the rat” value in data set [2] (0.3 h) came out at 0.72 µg/mL; in data set [2] (1 h) it was 1.64 µg/mL; in data set [2] (2 h) it was 2.50 µg/mL; in data set [2] (3 h), 1.31 µg/mL; in data set [2] (4 h) it was 0.58 µg/mL; in data set [2] (5 h), 0.38 µg/mL. In data set [2] (6 h), the “Hematic levels in the rat” value came out at 0.08 µg/mL. The “absorption by oral route (in words)” value in data set [2] is recorded as “absorbed by oral route in a rate practically analogous to that of erythromycin estolate”. The “Hematic levels in the healthy volunteer” value in data set [3] (0.30 hours, 18 min) stood at 1.28 µg/mL; in data set [3] (1 hour, 60 min), 1.70 µg/mL; in data set [3] (2 hours, 120 min) it was 2.16 µg/mL; in data set [3] (3 hours, 180 min), 1.48 µg/mL; in data set [3] (4 hours, 240 min), 1.21 µg/mL.
Regarding `CCC(=O)O[C@H]1[C@H](O[C@@H]2[C@@H](C)[C@H](O[C@H]3C[C@@](C)(OC)[C@@H](O)[C@H](C)O3)[C@@H](C)C(=O)O[C@H](CC)[C@@](C)(O)[C@H](O)[C@@H](C)C(=O)[C@H](C)C[C@@]2(C)O)O[C@H](C)C[C@@H]1N(C)C` [RV13, erythromycin-monopropionate-thiazolidin-carboxylate], the MIC was over 200 µg/mL with Citrobacter SS 09; 0.4 µg/mL (≈ 0.506 µM) in the data set with B. anthranis SS 08; 0.2 µg/mL (≈ 0.253 µM) against H. pertussis SS 03; 0.4 µg/mL (≈ 0.506 µM) in the data set on B. anthranis SS 09; 0.05 µg/mL (≈ 0.0633 µM) with Staph. albus SS 03. In addition, the “Hematic levels in the rat” value was determined as 0.81 µg/mL in data set [2] (0.3 h); 1.80 µg/mL in data set [2] (1 h); 2.47 µg/mL in data set [2] (2 h); 1.10 µg/mL in data set [2] (3 h); 0.72 µg/mL in data set [2] (4 h); 0.52 µg/mL in data set [2] (5 h). In data set [2] (6 h), the “Hematic levels in the rat” value was 0.12 µg/mL. Also, the “absorption by oral route (in words)” value in data set [2] is recorded as “absorbed by oral route in a rate practically analogous to that of erythromycin estolate”. Also, the “Hematic levels in the healthy volunteer” value in data set [3] (0.30 hours, 18 min) was found to be 1.16 µg/mL; in data set [3] (1 hour, 60 min), 1.67 µg/mL; in data set [3] (2 hours, 120 min), 2.21 µg/mL; in data set [3] (3 hours, 180 min), 1.67 µg/mL; in data set [3] (4 hours, 240 min), 1.29 µg/mL.
As for `CCC(=O)O[C@H]1[C@H](O[C@@H]2[C@@H](C)[C@H](O[C@H]3C[C@@](C)(OC)[C@@H](O)[C@H](C)O3)[C@@H](C)C(=O)O[C@H](CC)[C@@](C)(O)[C@H](O)[C@@H](C)C(=O)[C@H](C)C[C@@]2(C)O)O[C@H](C)C[C@@H]1N(C)C` [RV15, erythromycin monopropionate N-acetylcysteinate], the MIC against Citrobacter SS 09 is over 200 µg/mL; against B. anthranis SS 08 it was 0.4 µg/mL (≈ 0.506 µM); in the data set with H. pertussis SS 03, 0.2 µg/mL (≈ 0.253 µM); with B. anthranis SS 09, 0.4 µg/mL (≈ 0.506 µM); against Staph. albus SS 03, 0.25 µg/mL (≈ 0.316 µM). The “Hematic levels in the rat” value in data set [2] (0.3 h) is 0.85 µg/mL; in data set [2] (1 h), 1.90 µg/mL; in data set [2] (2 h), 2.68 µg/mL; in data set [2] (3 h), 1.19 µg/mL; in data set [2] (4 h) it was 0.55 µg/mL; in data set [2] (5 h), 0.44 µg/mL. Besides, the “Hematic levels in the rat” value in data set [2] (6 h) was 0.03 µg/mL. Also, the “absorption by oral route (in words)” value in data set [2] is recorded as “absorbed by oral route in a rate practically analogous to that of erythromycin estolate”. The “Hematic levels in the healthy volunteer” value in data set [3] (0.30 hours, 18 min) came to 1.10 µg/mL; in data set [3] (1 hour, 60 min), 1.58 µg/mL; in data set [3] (2 hours, 120 min), 2.17 µg/mL; in data set [3] (3 hours, 180 min), 1.72 µg/mL; in data set [3] (4 hours, 240 min) it was 1.38 µg/mL.

Broadly, the MIC is the least concentration at which growth counts as inhibited.
